Measured values taken from PMC12022903, “Evaluation of drug-drug interaction between Suraxavir Marboxil (GP681) and itraconazole, and assessment of the impact of gene polymorphism” (Frontiers in Pharmacology, 2025).
Where “and” joins values, the source holds several entries; their conditions need not be identical. Identical values can stand only once.

Experiment: Pharmacokinetic parameters of GP1707D07 (HPLC-MS/MS, non-compartmental) in the GP681-itraconazole drug-drug interaction study
Assay type: in vivo, healthy Chinese subjects
Description: This single-center, open-label, self-controlled, fixed-sequence study, sponsored by Qingfeng Pharmaceutical Group Co., Ltd., was conducted at a single clinical research site in the China–Japan Friendship Hospital (Beijing, China). Each subject received the following treatment: Suraxavir Marboxil (GP681) 20 mg in the fasted state on day 1 and day 26. Itraconazole capsules (Sporanox®: Xi’an Yangsen Pharmaceutical Co., Ltd., China) 0.2 g twice daily (BID, bis in die) on day 22. Itraconazole 0.2 g daily from day 23 to day 36 [including day 26, when itraconazole was co-administrated with Suraxavir Marboxil (GP681)]. The washout period is 21 days (Figure 2). It should be noted that in the following sections, when discussing the PK profile, this study was divided into Period 1 (Suraxavir Marboxil (GP681) monotherapy, from day −1 to day 12), and Period 2 (Suraxavir Marboxil (GP681)-itraconazole co-administration, from day 21 to day 36). When discussion the safety profile, this study was divided into Stage 1 (Suraxavir Marboxil (GP681) monotherapy stage, from day 1 to day 21), Stage 2 (itraconazole monotherapy stage, from day 22 to day 25), and Stage 3 (Suraxavir Marboxil (GP681)-itraconazole co-administration stage, from d 26 to d 36).
Blood samples were collected at the following time points: pre–dose, 0.5, 1, 2, 3, 4, 5, 6, 8, 12, 24, 36, 48, 72, 120, 168, and 264 h post-dose on day 1 and day 26. In addition, a blood sample were collected before dosing on day 1 for genetic polymorphism assessment.
A validated high-performance liquid chromatography-tandem mass spectrometry (HPLC-MS/MS) method was used to determine plasma concentrations of Suraxavir Marboxil (GP681) and its active metabolite GP1707D07 at different times, with the quantification range of 0.3/0.3–300/300 ng/mL for Suraxavir Marboxil (GP681) and GP1707D07. The lower limit of quantification (LLOQ) for both compounds was 0.300 ng/mL. Phoenix® WinNonlin® 8.3 was used to estimate and analyze the pharmacokinetic parameters of non-compartmental model from plasma concentration data. Pharmacokinetic parameters included: maximum plasma concentration (Cmax), area under the plasma concentration-time curve extrapolated from time zero to infinity (AUC0- ∞ ), time to Cmax (Tmax), half-life (t1/2), λz, AUC_%Extrap, Vz/F, CL/F, and mean residence time (MRT).
Statistical analysis was performed using SAS (version 9.4 or above) software programming. Pharmacokinetic concentration analysis was based on Pharmacokinetic Analysis Concentration Set (PKCS). Individual and mean concentrations (mean ± SD) were plotted against planned blood sampling time points for the analyte on linear and semi-log scales. Pharmacokinetic parameter analysis was based on Pharmacokinetic Analysis Parameter Set (PKPS). Drug interaction analysis was based on Drug Interaction Set (DIS). The geometric mean ratios and their 90% confidence intervals of pharmacokinetic parameters Cmax, AUC0-t, and AUC0- ∞ under Suraxavir Marboxil (GP681) single dose and Suraxavir Marboxil (GP681)-itraconazole co-administration conditions were calculated after natural logarithm transformation, using a linear mixed effects model with subjects as random effects and treatment (combined/single) as fixed effects.
1.3 Pharmacokinetic Sample Collection and Processing: Pharmacokinetic Analysis: Approximately 4 mL of blood is collected each time into a tube containing sodium fluoride/potassium oxalate as an anticoagulant. The tube is then placed upright in an ice-water bath. The plasma samples are separated by centrifugation for the detection of GP681/GP1707D07 blood drug concentrations. Both sample collection and processing are conducted under white light conditions. […]

[1] = GP681 + itraconazole vs GP681 alone, N=12
[2] = Period 1, GP681 20 mg monotherapy, geometric mean, N=12
[3] = Period 1, GP681 20 mg monotherapy, individual subjects
[4] = Period 1, GP681 20 mg monotherapy, mean, N=12
[5] = Period 1, GP681 20 mg monotherapy, median, N=12
[6] = Period 2, GP681 20 mg + itraconazole, geometric mean, N=12

## O=C1c2c(O)c(=O)ccn2N([C@@H]2c3ccccc3SCc3c2ccc(F)c3F)[C@@H]2COC3(CC3)CN12 [GP1707D07]
[1]
  AUC0-t: point estimate of geometric mean ratio (90% CI) Period 2/Period 1: 215.2% and 215.2 (170.7, 271.3) %
  AUC0-∞: point estimate of geometric mean ratio (90% CI) Period 2/Period 1: 255.4% and 255.4 (204.5, 319.0) %
  Cmax: point estimate of geometric mean ratio (90% CI) Period 2/Period 1: 137.7% and 137.7 (98.5, 192.3) %
[2]
  AUC0-t: 955.800 ng·h/mL
  AUC_%Extrap: 7.117%
  CL/F: 19.255 L/h
  Cmax: 16.0 ng/mL and 16.0070 ng/mL
  MRT0-t: 66.790 h
  MRT0-∞: 87.2 h and 87.218 h
  Tmax: 3.7 h
  Vz/F: 1799.125 L
  t1/2: 64.8 h and 64.764 h
  λz: 0.0107 h⁻¹
[3]
  AUC0-t: 1770.18 ng·h/mL and 1069.77 ng·h/mL and 1199.27 ng·h/mL and 602.25 ng·h/mL and 1158.79 ng·h/mL and 728.18 ng·h/mL and 1487.97 ng·h/mL and 759.35 ng·h/mL and 1247.30 ng·h/mL and 1364.54 ng·h/mL and 354.04 ng·h/mL and 739.81 ng·h/mL and 1069.8 ng·h/mL and 1199.3 ng·h/mL and 602.3 ng·h/mL and 1158.8 ng·h/mL and 728.2 ng·h/mL and 1488.0 ng·h/mL and 759.4 ng·h/mL and 1364.5 ng·h/mL and 354.0 ng·h/mL and 739.8 ng·h/mL and 1770.2 ng·h/mL
  AUC0-∞: 1874.52 ng·h/mL and 1171.14 ng·h/mL and 1273.75 ng·h/mL and 689.41 ng·h/mL and 1290.37 ng·h/mL and 801.51 ng·h/mL and 1650.91 ng·h/mL and 781.02 ng·h/mL and 1310.49 ng·h/mL and 1409.63 ng·h/mL and 407.77 ng·h/mL and 814.16 ng·h/mL
  AUC_%Extrap: 5.57% and 8.66% and 5.85% and 12.64% and 10.20% and 9.15% and 9.87% and 2.78% and 4.82% and 3.20% and 13.18% and 9.13%
  CL/F: 10.67 L/h and 17.08 L/h and 15.70 L/h and 29.01 L/h and 15.50 L/h and 24.95 L/h and 12.11 L/h and 25.61 L/h and 15.26 L/h and 14.19 L/h and 49.05 L/h and 24.57 L/h
  Cmax: 44.439 ng/mL and 17.988 ng/mL and 26.933 ng/mL and 7.24 ng/mL and 15.539 ng/mL and 12.018 ng/mL and 25.999 ng/mL and 16.03 ng/mL and 20.468 ng/mL and 30.14 ng/mL and 3.382 ng/mL and 11.179 ng/mL and 18.0 ng/mL and 26.9 ng/mL and 7.2 ng/mL and 15.5 ng/mL and 12.0 ng/mL and 26.0 ng/mL and 16.0 ng/mL and 20.5 ng/mL and 30.1 ng/mL and 3.4 ng/mL and 11.2 ng/mL and 44.4 ng/mL
  MRT0-t: 61.44 h and 71.79 h and 62.61 h and 74.73 h and 74.78 h and 69.62 h and 63.68 h and 57.28 h and 63.69 h and 56.39 h and 80.89 h and 69.22 h
  MRT0-∞: 75.90 h and 95.15 h and 78.26 h and 108.96 h and 102.37 h and 94.31 h and 93.23 h and 64.34 h and 75.97 h and 64.54 h and 117.49 h and 94.32 h
  Tmax: 3 h and 6 h and 2 h and 5 h and 4 h
  Vz/F: 857.04 L and 1725.92 L and 1402.22 L and 3031.63 L and 1619.87 L and 2462.69 L and 1483.10 L and 1801.98 L and 1183.17 L and 996.59 L and 5767.31 L and 2522.77 L
  t1/2: 55.68 h and 70.05 h and 61.90 h and 72.43 h and 72.44 h and 68.41 h and 84.86 h and 48.78 h and 53.74 h and 48.69 h and 81.51 h and 71.18 h
  λz: 0.012 h⁻¹ and 0.010 h⁻¹ and 0.011 h⁻¹ and 0.008 h⁻¹ and 0.014 h⁻¹ and 0.013 h⁻¹ and 0.009 h⁻¹
[4]
  AUC_%Extrap: 7.9 (3.4) % and 7.919%
  CL/F: 21.1 (10.6) L/h and 21.141 L/h
  Cmax: 19.3 (11.2) ng/mL and 19.2796 ng/mL
  MRT0-t: 67.2 (7.5) h and 67.176 h
  MRT0-∞: 88.7 (17.0) h and 88.737 h
  Tmax: 4.0 h
  Vz/F: 2071.2 (1,333.0) L and 2071.190 L
  t1/2: 65.8 (12.1) h and 65.805 h
  λz: 0.011 (0.0021) h-1 and 0.0109 h-1
Period 1, GP681 20 mg monotherapy, median (range), N=12
  Tmax: 4.0 (2.0–6.0) h
[5]
  AUC0-t: 1114.281 ng·h/mL
  AUC0-∞: 1222.445 ng·h/mL
  AUC_%Extrap: 8.894%
  CL/F: 16.390 L/h
  Cmax: 17.0090 ng/mL
  MRT0-t: 66.454 h
  MRT0-∞: 93.771 h
  Vz/F: 1672.897 L
  t1/2: 69.231 h
  λz: 0.0100 h⁻¹
[6]
  AUC0-t: 2057.0 ng·h/mL and 2057.031 ng·h/mL
  AUC_%Extrap: 21.847%
  CL/F: 7.539 L/h
